Measured values as given in ChEMBL document CHEMBL3885881, “DrugMatrix”.

Species: Rattus norvegicus
Assay: DrugMatrix - Regimen: Daily Repeat
Assay type: toxicity, organism-based, Sprague-Dawley
Set-up: regimen Daily Repeat, gender Male, age 6-8 weeks
Conditions: in vivo, po, route oral GAVAGE, vehicle 100 % WATER; for ABSOLUTE BASOPHIL / ABSOLUTE EOSINOPHIL / ABSOLUTE LYMPHOCYTE / ABSOLUTE MONOCYTE / ABSOLUTE SEGMENTED NEUTROPHIL / BASOPHIL / EOSINOPHIL / ERYTHROCYTE COUNT / HEMATOCRIT / HEMOGLOBIN / LEUKOCYTE COUNT / LYMPHOCYTE / MEAN CORPUSCULAR HEMOGLOBIN / MEAN CORPUSCULAR HEMOGLOBIN CONCENTRATION / MEAN CORPUSCULAR VOLUME / MONOCYTE / NEUTROPHIL / NUCLEATED RED BLOOD CELLS / PLATELET COUNT: tissue Blood; for ALANINE AMINOTRANSFERASE / ALBUMIN / ALKALINE PHOSPHATASE / ASPARTATE AMINOTRANSFERASE / BLOOD UREA NITROGEN / CARBON DIOXIDE / CHLORIDE / CHOLESTEROL / CREATINE PHOSPHOKINASE / CREATININE / GLUCOSE / LACTATE DEHYDROGENASE / LIPASE / PHOSPHORUS / POTASSIUM / SODIUM / TOTAL BILIRUBIN / TOTAL PROTEIN / URIC ACID: tissue Plasma
[1] = 200 mg/kg, 120 h, dose level Low, time 5 day
[2] = 2625 mg/kg, 72 h, dose level High, time 3 day
[3] = 2625 mg/kg, 120 h, dose level High, time 5 day

With `O=C(O)c1cccnc1` [NIACIN] the “ABSOLUTE BASOPHIL” value [1] was 0 CELLS/uL, the “ABSOLUTE EOSINOPHIL” value [1] was 0 CELLS/uL and the “ABSOLUTE LYMPHOCYTE” value [1] was 13805.67 CELLS/uL. The “ABSOLUTE MONOCYTE” value [1] was 0 CELLS/uL, the “ABSOLUTE SEGMENTED NEUTROPHIL” value [1] was 1394.33 CELLS/uL and the BASOPHIL [1] was 0%. The EOSINOPHIL [1] was 0%, the “ERYTHROCYTE COUNT” value [1] was 5.57 x10E6/uL and the HEMATOCRIT [1] was 34.77%. The HEMOGLOBIN [1] was 13.77 G/DL, the “LEUKOCYTE COUNT” value [1] was 15.2 x10E3/uL and the LYMPHOCYTE [1] was 91%. For the same compound, the “MEAN CORPUSCULAR HEMOGLOBIN” value [1] was 24.73 pg, the “MEAN CORPUSCULAR HEMOGLOBIN CONCENTRATION” value [1] was 39.57 G/DL and the “MEAN CORPUSCULAR VOLUME” value [1] was 62.53 fL. The MONOCYTE [1] was 0%, the NEUTROPHIL [1] was 9% and the “NUCLEATED RED BLOOD CELLS” value [1] was 0.33 /100WBC. For the same compound, the “PLATELET COUNT” value [1] was 1180.67 x10E3/uL, the “ALANINE AMINOTRANSFERASE” value [1] was 55.33 u/L and the ALBUMIN [1] was 4.03 G/DL. For the same compound, the “ALKALINE PHOSPHATASE” value [1] was 296.33 u/L, the “ASPARTATE AMINOTRANSFERASE” value [1] was 77.67 u/L and the “BLOOD UREA NITROGEN” value [1] was 12.67 mg/dL. For the same compound, the “CARBON DIOXIDE” value [1] was 31.33 mmol/L, the CHLORIDE [1] was 101.67 MEQ/L and the CHOLESTEROL [1] was 76.33 mg/dL. The “CREATINE PHOSPHOKINASE” value [1] was 209 u/L, the CREATININE [1] was 0.23 mg/dL and the GLUCOSE [1] was 140 mg/dL. The “LACTATE DEHYDROGENASE” value [1] was 212 u/L, the LIPASE [1] was 13 u/L and the PHOSPHORUS [1] was 12.63 mg/dL. For the same compound, the POTASSIUM [1] was 6.55 MEQ/L, the SODIUM [1] was 145.13 MEQ/L and the “TOTAL BILIRUBIN” value [1] was 0.13 mg/dL. The “TOTAL PROTEIN” value [1] was 5.93 G/DL, the “URIC ACID” value [1] was 1.43 mg/dL and the “ABSOLUTE BASOPHIL” value [2] was 0 CELLS/uL. The “ABSOLUTE EOSINOPHIL” value [2] was 135 CELLS/uL, the “ABSOLUTE LYMPHOCYTE” value [2] was 10224 CELLS/uL and the “ABSOLUTE MONOCYTE” value [2] was 258 CELLS/uL. The “ABSOLUTE SEGMENTED NEUTROPHIL” value [2] was 1683 CELLS/uL, the BASOPHIL [2] was 0% and the EOSINOPHIL [2] was 1%. The “ERYTHROCYTE COUNT” value [2] was 5.89 x10E6/uL, the HEMATOCRIT [2] was 36.17% and the HEMOGLOBIN [2] was 14.27 G/DL. The “LEUKOCYTE COUNT” value [2] was 12.3 x10E3/uL, the LYMPHOCYTE [2] was 84% and the “MEAN CORPUSCULAR HEMOGLOBIN” value [2] was 24.23 pg. The “MEAN CORPUSCULAR HEMOGLOBIN CONCENTRATION” value [2] was 39.43 G/DL, the “MEAN CORPUSCULAR VOLUME” value [2] was 61.33 fL and the MONOCYTE [2] was 2%. For the same compound, the NEUTROPHIL [2] was 13%, the “NUCLEATED RED BLOOD CELLS” value [2] was 0.33 /100WBC and the “PLATELET COUNT” value [2] was 1326 x10E3/uL. The “ALANINE AMINOTRANSFERASE” value [2] was 45 u/L, the ALBUMIN [2] was 3.73 G/DL and the “ALKALINE PHOSPHATASE” value [2] was 269.33 u/L. For the same compound, the “ASPARTATE AMINOTRANSFERASE” value [2] was 105 u/L, the “BLOOD UREA NITROGEN” value [2] was 15 mg/dL and the “CARBON DIOXIDE” value [2] was 29 mmol/L. The CHLORIDE [2] was 100.33 MEQ/L, the CHOLESTEROL [2] was 68.67 mg/dL and the “CREATINE PHOSPHOKINASE” value [2] was 532.33 u/L. The CREATININE [2] was 0.18 mg/dL, the GLUCOSE [2] was 145.67 mg/dL and the “LACTATE DEHYDROGENASE” value [2] was 900 u/L. The LIPASE [2] was 11.33 u/L, the PHOSPHORUS [2] was 12.33 mg/dL and the POTASSIUM [2] was 6.2 MEQ/L. The SODIUM [2] was 144.73 MEQ/L, the “TOTAL BILIRUBIN” value [2] was 0.13 mg/dL and the “TOTAL PROTEIN” value [2] was 5.57 G/DL. For the same compound, the “URIC ACID” value [2] was 1.47 mg/dL, the “ABSOLUTE BASOPHIL” value [3] was 0 CELLS/uL and the “ABSOLUTE EOSINOPHIL” value [3] was 0 CELLS/uL. For the same compound, the “ABSOLUTE LYMPHOCYTE” value [3] was 15227.67 CELLS/uL, the “ABSOLUTE MONOCYTE” value [3] was 166 CELLS/uL and the “ABSOLUTE SEGMENTED NEUTROPHIL” value [3] was 1206.33 CELLS/uL. For the same compound, the BASOPHIL [3] was 0%, the EOSINOPHIL [3] was 0% and the “ERYTHROCYTE COUNT” value [3] was 5.68 x10E6/uL. For the same compound, the HEMATOCRIT [3] was 36.37%, the HEMOGLOBIN [3] was 14.23 G/DL and the “LEUKOCYTE COUNT” value [3] was 16.6 x10E3/uL. The LYMPHOCYTE [3] was 91.67%, the “MEAN CORPUSCULAR HEMOGLOBIN” value [3] was 25.07 pg and the “MEAN CORPUSCULAR HEMOGLOBIN CONCENTRATION” value [3] was 39.17 G/DL. The “MEAN CORPUSCULAR VOLUME” value [3] was 64 fL, the MONOCYTE [3] was 1% and the NEUTROPHIL [3] was 7.33%. The “NUCLEATED RED BLOOD CELLS” value [3] was 0.33 /100WBC, the “PLATELET COUNT” value [3] was 1260.67 x10E3/uL and the “ALANINE AMINOTRANSFERASE” value [3] was 55 u/L. For the same compound, the ALBUMIN [3] was 4.07 G/DL, the “ALKALINE PHOSPHATASE” value [3] was 397.33 u/L and the “ASPARTATE AMINOTRANSFERASE” value [3] was 96 u/L. The “BLOOD UREA NITROGEN” value [3] was 16.67 mg/dL, the “CARBON DIOXIDE” value [3] was 32.33 mmol/L and the CHLORIDE [3] was 100.67 MEQ/L. For the same compound, the CHOLESTEROL [3] was 55.33 mg/dL, the “CREATINE PHOSPHOKINASE” value [3] was 323.67 u/L and the CREATININE [3] was 0.2 mg/dL. The GLUCOSE [3] was 151 mg/dL, the “LACTATE DEHYDROGENASE” value [3] was 666 u/L and the LIPASE [3] was 10.33 u/L. The PHOSPHORUS [3] was 11.7 mg/dL, the POTASSIUM [3] was 6.01 MEQ/L and the SODIUM [3] was 145.9 MEQ/L. The “TOTAL BILIRUBIN” value [3] was 0.27 mg/dL, the “TOTAL PROTEIN” value [3] was 5.7 G/DL and the “URIC ACID” value [3] was 1.43 mg/dL.
